Marks after values point to notes of the source that are not given here.
What was measured:
[1] = test system: 5% DSS murine colitis; test: Acute murine 5% DSS colitis model, Experiment 1; assay type: in vivo; details: for DAI at day 7: 10 mg/kg daily for 7 days, vehicle 9.3±0.51; for DAI on the day of autopsy versus vehicle controls: compound 6 3-30 mg/kg at each dose level; for colon pathology (histology scores) relative to vehicle: compound 6 at both 10 and 30 mg/Kg, prednisolone 5 mg/Kg; for colon IL1β level / colon IL6 level / colon TNFα level: day 7; for colon IL1β level: DSS-elevated 0.744±0.076 ng/mg; for colon IL6 level: DSS-elevated 1.057±0.1784 ng/mg; for colon TNFα level: DSS-elevated 1.478±0.378 ng/mg
Source text: The study is widely used as a model for studying the pathogenesis of UC and also for screening new therapeutic interventions for the treatment of UC.
In these studies, an acute colitis model was used, with 5% DSS administered in the drinking water of BALB/c mice. This dosage regime induces severe acute colitis, by days 7-8 mice had overt rectal bleeding and marked weight loss; unless sacrificed beforehand, all mice would have died by days 10-12.
Specific Pathogen-Free BALB/c mice, 6-8 weeks of age, were obtained from a commercial supplier (Harlan UK). Mice were fed irradiated diet and housed in individually ventilated cages (Tecniplast UK) under positive pressure.
DSS (5%) was dissolved in drinking water. Compounds were administered orally at a dose of 10 mg/kg or 30 mg/kg on days 0-7, and mice were culled on day 8 or day 9, depending on the severity of the disease. The mice were checked each day for morbidity and the weight of individual mice was recorded. Induction of colitis was determined upon autopsy, length of colon and histology. Colons were recovered and stored at −20° C. for immunological analysis. All of the compounds and experimental groups are randomly alphabetically labelled. Throughout experiments all data recording was performed in a blind manner. The codes on boxes/groups were not broken until after the data was analysed i.e. boxes labelled A, B, C etc were identified as untreated, DSS-treated, or DSS+compound-treated.
To quantify the extent of colitis, a disease activity index (DAI) was determined based on weight loss, faecal blood and stool consistency. A score was given for each parameter, with the sum of the scores used as the DAI. For each treatment group n=8.
All compounds were prepared for oral gavage (0.1 mL per os (p.o.) per 10 g body weight) as a suspension in 0.5% carboxymethyl cellulose/2% Tween 80, at a dose of 3-30 mg/Kg.

[2] = Partition coefficient (log P), HPLC method; assay type: physicochemical; details: reverse phase C18 HPLC; for Acid Log10 POW: acidic pH; for Basic Log10 POW: alkaline pH; for Neutral Log10 POW: neutral pH
Source text: The partition coefficient of compound 5 and related analogous compounds was investigated using the HPLC method (reverse phase C18 HPLC column) at neutral, acidic and alkaline pH.

[3] = test system: chronic colitis in IL10-/- mice; test: Chronic IL10-/- colitis model; assay type: in vivo, IL10-/- BALB/c strain mice; details: 300 mg/kg/week oral, MWF
Procedure: FIG. 15: Is a group showing weight loss in IL10^−−/−− mice treated with vehicle or compound 6. Mice were administered compound 6 (300 mg/kg/week) or vehicle orally on a Monday/Wednesday/Friday (MWF) dosing schedule. Mice were ˜4 weeks of age at start of experiment and were treated for 9 weeks. Mice were weighed weekly and data are presented as Mean±SEM from 9-12 mice per group. Mice were monitored for overt disease, rectal prolapse, and moribund animals were humanely killed;
Mice with a deletion in the IL10^−−/−− gene spontaneously develop chronic colitis, with the age of onset and the severity of the disease being dependent on background mouse strain and the conditions in which the animals are housed. The onset of colitis in IL10^−−/−− mice housed under the conditions used in this study was also strain dependent, with an earlier onset and greater severity, in terms of mortality, in BALB/c strain mice relative to C57BL/6 strain animals. In this experiment, animals received oral treatment on a MWF regime over 9 weeks. Initially, both groups of mice progressively gain weight (FIG. 15). […] By week 9 animals had marked weight loss, with one moribund animal humanely killed on day 60 in each group. As other mice were losing weight and developing clinical symptoms of disease, both groups were culled at week 9 (day 63) and analysed.

[4] = Solubility in water and buffers; assay type: physicochemical
Procedure: The sodium salt, potassium salt, calcium salt, α-methylbenzylamine salt and N-Methyl-(D)-Glucamine salt were synthesised. The sodium and calcium salt were unsuccessful. The three salts of compound 5, named potassium salt, α-methylbenzylamine salt and N-Methyl-(D)-Glucamine salt were used for solubility and partition coefficient (log P) studies.
The solubility of the four compounds were determined: […]

[5] = test system: 5% DSS murine colitis; test: DSS murine colitis, Experiment 2 (Method 2); assay type: in vivo, BDF1 male mice; details: 31 at 2 mg/ml, 47 at 4 mg/ml, 10 ml/kg oral gavage daily day 0-6; 5-ASA 100 mg/kg
Procedure: A total of 90 BDF1 (H. pylori-free, murine norovirus-free) male mice (Harlan Laboratories, UK) were used in the study. Animals were 8-10 weeks old on supply and used at 10-12 weeks of age. All mice were held in individually ventilated cages (IVCs) in an SPF (Specific Pathogen Free) barrier unit. The animals were identified by numbered cages and by ear punches.
DSS (MP Biomedicals 0216011090, lot# M2709) was prepared as a 5% (w/v) solution in the drinking water and made fresh daily on days 0 to 6 inclusive. DSS was administered from day 0 to day 7.
Test items were stored at −20° C. until the initiation of the study. Each test item was formulated as a homogenous suspension in 0.5% carboxymethyl cellulose (CMC, Sigma C4888) in sterile water (Sigma W3500, lot# RNBC1419), using an Ultraturax homogeniser, on study day −1. Compound 31 was formulated at 2 mg/ml and 47 was formulated at 4 mg/ml. After formulation the test item and the vehicle stocks anonymised with a letter code. All solutions were stored at 4° C. during the study, with 3.8 ml of each suspension being dispensed daily. Test items were administered by oral gavage, daily at 09.00 hrs, at 10 ml/kg, from study day 0 to study day 6.
5-ASA (5-Aminosalicylic acid, Sigma A3537, lot#051M1878V) was aliquoted into preweighed amounts between 71 and 84 mg. Like test item suspensions, these aliquots were anonymised by a letter code. Individual aliquots were formulated as a 10 mg/ml suspension in 0.5% CMC (Sigma C4888) in sterile water (Sigma W3500, lot# RNBC1419) on each day of dosing. 5-ASA was administered by oral gavage, daily at 09.00 hrs, at 10 ml/kg to give a dose of 100 mg/kg, from study day 0 to study day 6. 2.5 Clinical examinations
Any animal was culled if the weight loss was greater than 20%. Animal well-being was monitored daily. Once daily from day 0 until the end of the study, all mice were weighed and assessed for stool consistency, and the presence of overt blood in the stool or around the anus according to the criteria in 2.1
At necropsy, observation of stool in the large bowel was used to supplement in-life observation. […]

[6] = compound 6 10 and 30 mg/kg groups, Prednisolone 5 mg/kg
[7] = compound 6 30 mg/kg, Prednisolone 5 mg/kg

O=C(O)c1ccc(C[C@@]2(C3=Cc4ccccc4C3)Cc3ccccc3[C@H]2O)cc1 (single isomer, unassigned) [Compound 2]
activity in 5% DSS murine colitis model ([1]; 30 mg/kg p.o. daily for 7 days): highly active

O=C(O)c1ccc(C[C@]2(C3=Cc4ccccc4C3)Cc3ccccc3[C@@H]2O)cc1 (single isomer, unassigned) [Compound 3]
DAI at day 6 versus vehicle ([1]; 30 mg/kg p.o.): no statistical (P>0.05) difference | activity in 5% DSS murine colitis model ([1]; 30 mg/kg p.o. daily for 7 days): minimal activity

O=C(O)c1ccc(C[C@@]2(C3=Cc4ccccc4C3)Cc3ccccc3[C@@H]2O)cc1 [Compound 4, 4-(((1R,2S)-1-hydroxy-2,3-dihydro-1H,1′H-2,2′-biinden-2-yl)methyl)benzoic acid]
activity in 5% DSS murine colitis model ([1]; 30 mg/kg p.o. daily for 7 days): almost devoid of activity | disease activity index (DAI) at day 7 ([1]; 30 mg/kg p.o. daily for 7 days, vehicle controls 9.0±0.53): without activity

O=C(O)c1ccc(C[C@]2(C3=Cc4ccccc4C3)Cc3ccccc3[C@H]2O)cc1 [Compound 5, 4-(((1S,2R)-1-hydroxy-2,3-dihydro-1H,1′H-2,2′-biinden-2-yl)methyl)benzoic acid]
DAI at day 7 [1]: no significant (P>0.05) effect | activity in 5% DSS murine colitis model ([1]; 30 mg/kg p.o. daily for 7 days): highly active | Acid Log10 POW [2]: 3.9 | Basic Log10 POW [2]: 3.7 | Neutral Log10 POW [2]: 3.7

O=C(O)c1ccc(C[C@@]2(C3=Cc4ccccc4C3)Cc3ccccc3[C@H]2O)cc1 [Compound 6, 6-(Methylamino)hexane-1,2,3,4,5-pentanol 4-(((1S,2S)-1-hydroxy-2,3-dihydro-1H,1′H-2,2′-biinden-2-yl)methyl)benzoate]
inhibition of colon shortening (colon length) versus vehicle, day 7 ([1]; 3 mg/kg): did not have a significant effect | therapeutic efficacy in the DSS model ([1]; compound 6 30 mg/Kg versus prednisolone 5 mg/Kg): comparable, or better, efficacy relative to prednisolone | colon length compared with Prednisolone, day 7 ([1]; compound 6 30 mg/kg, P<0.05): significantly better than Prednisolone | DAI on the day of autopsy versus vehicle controls ([1]; Prednisolone 5 mg/kg): significantly (P<0.05-P<0.01) lower DAI than vehicle controls | inhibition of colon shortening (colon length) versus vehicle, day 7 [1, 6]: did have a significant effect | colon pathology (histology scores) relative to vehicle [1]: dose-dependent and highly statistically significant reduction | colon IL1β level [1, 7]: significant (P<0.05, 30 mg/kg) and dose-dependant reduction | colon IL6 level [1, 7]: significant (P<0.05, 30 mg/kg) and dose-dependant reduction | colon TNFα level [1, 7]: significant (P<0.05, 30 mg/kg) and dose-dependant reduction | overt reactions in mice ([1]; oral daily for 7 days, 3, 10 and 30 mg/Kg): no overt reactions | Acid Log10 POW [2]: 2.6 | Basic Log10 POW [2]: 4.3 | Neutral Log10 POW [2]: 3.5 | survival over the 9 weeks, Kaplan-Meier analysis versus vehicle [3]: no statistical difference in survival | weight gain ([3]; vehicle stopped gaining weight from week 5): maintained weight gain until week 8 | Serum Amyloid A (SAA) levels relative to vehicle ([3]; week 9): significantly (P<0.05; Student's t-test) reduced | extent of colon pathology (histology score) relative to vehicle ([3]; week 9): significantly reduced

CNCC(O)C(O)C(O)C(O)CO.O=C(O)c1ccc(C[C@]2(C3=Cc4ccccc4C3)Cc3ccccc3[C@H]2O)cc1 [Compound 7, 6-(Methylamino)hexane-1,2,3,4,5-pentanol 4-(((1S,2R)-1-hydroxy-2,3-dihydro-1H,1′H-2,2′-biinden-2-yl)methyl)benzoate]
DAI at day 7 [1]: no significant (P>0.05) effect | solubility, Milli-RO H20 ([4]; Milli-RO water, listed as Compound 5 N-Methyl-D-Glucamine salt): >60,000* μg/mL | solubility, pH 4.0 Buffer ([4]; pH 4.0 buffer): 0.14 μg/mL | solubility, pH 7.0 Buffer ([4]; pH 7.0 buffer, listed as Compound 5 N-Methyl-D-Glucamine salt): >60,000* μg/mL | solubility, pH 9.0 Buffer ([4]; pH 9.0 buffer, listed as Compound 5 N-Methyl-D-Glucamine salt): >60,000* μg/mL | Acid Log10 POW [2]: 3.8 | Basic Log10 POW [2]: 3.5 | Neutral Log10 POW [2]: 3.5

NCC(=O)O[C@@H]1c2ccccc2C[C@@]1(Cc1ccc(C(=O)O)cc1)C1=Cc2ccccc2C1 [Compound 31, 4-{[(1′S,2′S)-1′-(glycyloxy)-1′,3′-dihydro-1H,2′H-2,2′-biinden-2′-yl]methyl}benzoic acid]
DAI at day 7 in comparison with vehicle [5]: reduced DAI comparable or equal to 5ASA

C[C@]12C=CC(=O)C=C1CC[C@@H]1[C@@H]2[C@@H](O)C[C@@]2(C)[C@H]1CC[C@]2(O)C(=O)CO [Prednisolone, reference compound]
DAI on the day of autopsy versus vehicle controls ([1]; Prednisolone 5 mg/kg): significantly (P<0.01; ANOVA; Dunnett Multiple Comparison Test) reduced DAI scores | inhibition of colon shortening (colon length) versus vehicle, day 7 [1, 6]: did have a significant effect | colon pathology (histology scores) relative to vehicle [1]: no significant improvement | colon IL1β level [1, 7]: reduced (p<0.05) | colon IL6 level [1, 7]: reduced (p<0.05) | colon TNFα level [1, 7]: reduced (p<0.05)
